Values after ≈ are worked out from the molar mass of the structure shown.
Columns and labels:
[1] = test system: Peptostreptococcus intermedius; assay: standard agar-dilution test, anaerobic bacteria; format: cell-based; conditions: 2 h
[2] = test system: Streptococcus sp. 9960 (Group D); assay: gradient-plate agar-dilution method; format: cell-based
[3] = test system: pathogenic organisms, particularly gram-positive bacteria; assay: antibacterial activity (general statement); format: cell-based
Eubacterium aerofacines = assay: standard agar-dilution test, anaerobic bacteria; format: cell-based; conditions: 2 h
Excerpt: (§1) Table VIII summarizes the activity of A-40104 factor A, as determined by the standard agar-dilution test.
(§2) *MIC determined by the agar-dilution method. Endpoints were read after 2

[4] = test system: Bacteroides thetaiotaomicron; assay: standard agar-dilution test, anaerobic bacteria; format: cell-based; conditions: 2 h
Excerpt: as §1, §2

[5] = test system: Bacteroides melaninogenicus 1856/28; assay: standard agar-dilution test, anaerobic bacteria; format: cell-based; conditions: Prevotella intermedia, read after 2 hours incubation
Excerpt: as §1, §2

[6] = test system: Peptostreptococcus anaerobius; assay: standard agar-dilution test, anaerobic bacteria; format: cell-based; conditions: 2 h
Excerpt: as §1, §2

Clostridium septicum = assay: standard agar-dilution test, anaerobic bacteria; format: cell-based; conditions: 2 h
Excerpt: as §1, §2

Actinomyces israelii = assay: standard agar-dilution test, anaerobic bacteria; format: cell-based; conditions: read after 2 hours incubation
Excerpt: as §1, §2

[7] = test system: experimental bacterial infections; assay: experimental bacterial infections in mice (general statement); format: in vivo
Procedure: When two doses of these compounds were administered to mice in illustrative infections, the activity observed was measured as an ED50 value [effective dose in mg./kg. to protect 50 percent of the test animals; see Warren Wick, et al., J. Bacteriol. 81, 233-235 (1961)].

Streptococcus sp. 9960 = assay: standard disc-plate assay; format: cell-based; conditions: Group D, disc diameter 6.35 mm, read-out: Zone Diameters
Procedure: (§3) In one important aspect of this activity, the A-40104 antibiotics inhibit the growth of organisms which are resistant to other antibiotics. In Table IV the standard disc-plate-assay activity of A-40104 factors A and B against representative organisms is summarized. Activity is measured as the diameter (in mm) of the observed zone of inhibition; the diameter of disc used in each case was 6.35 mm.

[8] = test system: Staphylococcus aureus 3074; assay: standard disc-plate assay; format: cell-based; conditions: Penicillin-G resistant, disc diameter 6.35 mm, read-out: Zone Diameters
Procedure: as §3

[9] = test system: Staphylococcus aureus 3130; assay: standard disc-plate assay; format: cell-based; conditions: Methicillin resistant, disc diameter 6.35 mm, read-out: Zone Diameters
Procedure: as §3

[10] = test system: Staphylococcus aureus 3055; assay: standard disc-plate assay; format: cell-based; conditions: Penicillin-G susceptible, disc diameter 6.35 mm, read-out: Zone Diameters
Procedure: as §3

Streptococcus pyogenes [11] = assay: standard disc-plate assay; format: cell-based; conditions: Group A, disc diameter 6.35 mm, read-out: Zone Diameters
Procedure: as §3

Diplococcus pneumoniae = assay: standard disc-plate assay; format: cell-based; conditions: Streptococcus pneumoniae, disc diameter 6.35 mm, read-out: Zone Diameters
Procedure: as §3

Bacteroides corrodens = assay: standard agar-dilution test, anaerobic bacteria; format: cell-based; conditions: Eikenella corrodens, 2 h
[12] = test system: Hemophilus influenzae 259; assay: gradient-plate agar-dilution method; format: cell-based; conditions: Haemophilus influenzae
[13] = test system: Staphylococcus aureus 3055; assay: experimental bacterial infection in mice; format: in vivo; conditions: Staphylococcus aureus, 3055, sc, sc, two doses, challenge 1,260 × LD50 (ip), read-out: ED50 × 2
[14] = test system: Streptococcus sp. X-66 (Group D); assay: gradient-plate agar-dilution method; format: cell-based
Neisseria gonorrhea = assay: gradient-plate agar-dilution method; format: cell-based
[15] = test system: Hemophilus influenzae Laiv.; assay: gradient-plate agar-dilution method; format: cell-based; conditions: Haemophilus influenzae
Fusobacterium symbiosum = assay: standard agar-dilution test, anaerobic bacteria; format: cell-based; conditions: 2 h
Mycoplasma hyopneumoniae = assay: in vitro broth-dilution studies, mycoplasma; format: cell-based
Excerpt: (§4) The minimal inhibitory concentrations (MIC's) of A-40104 factor A; 19,20-dihydro-A-40104 factor A; and the tetraacetyl derivative of A-40104A against various mycoplasma species, as determined by in vitro broth-dilution studies, are summarized in Table IX.

Mycoplasma gallisepticum = assay: in vitro broth-dilution studies, mycoplasma; format: cell-based
Excerpt: as §4

Mycoplasma synoviae = assay: in vitro broth-dilution studies, mycoplasma; format: cell-based
Excerpt: as §4

Mycoplasma hyorhinis = assay: in vitro broth-dilution studies, mycoplasma; format: cell-based
Excerpt: as §4

[16] = acute toxicity, intraperitoneal injection in mice; conditions: mouse, in vivo, ip
Excerpt: A special advantage of the A-40104 antibiotics is that they are relatively nontoxic.

[17] = test system: Hemophilus influenzae 260; assay: gradient-plate agar-dilution method; format: cell-based; conditions: Haemophilus influenzae
powdery mildew = powdery mildew control on bean and barley plants; format: in vivo
Excerpt: The A-40104 antibiotics are also active against plant pathogens. […] The systemic activity of these antibiotics is especially advantageous in the control of plant pathogens or Spiroplasmas.

Streptococcus pyogenes [18] = assay: gradient-plate agar-dilution method; format: cell-based
Pasteurella hemolytica = assay: standard in vitro tests, Pasteurella; format: cell-based
Excerpt: (§5) Another veterinary aspect of this invention is the activity of the A-40104 antibiotics against Pasteurella species. P. multocida, for example, is a causative agent of respiratory infection in cattle, poultry, and swine. P. hemolytica is a major cause of respiratory disease in cattle. The activity of A-40104 factor A and its dihydro derivative against Pasteurella, as determined by standard in vitro tests, is summarized in Table X.

[19] = test system: Pasteurella multocida (bovine); assay: standard in vitro tests, Pasteurella; format: cell-based
Excerpt: as §5

[20] = test system: Streptococcus pneumoniae Park I; assay: experimental bacterial infection in mice; format: in vivo; conditions: sc, read-out: ED50 × 2
[21] = test system: Hemophilus influenzae Brun; assay: gradient-plate agar-dilution method; format: cell-based; conditions: Haemophilus influenzae

In the case of `C=CC1(C)CC(OC(=O)CO[C@@H]2OC[C@@H](O)[C@H](O)[C@H]2O)C2(C)C(C)CCC3(CCC(=O)C32)C(C)C1O` (stereo partly drawn) [A-40104 factor A, β,D-xylopyranosyl acetal derivative of pleuromutilin], the MIC [1] is reported as at most 0.5 mg/L, the MIC [2] is reported as 70 mg/L (≈ 137 µM) and the “growth inhibition of pathogenic organisms” value [3] is reported as “inhibit the growth of certain pathogenic organisms, particularly gram-positive bacteria”. It also gave an MIC (Eubacterium aerofacines) of 16 mg/L (≈ 31.3 µM), an MIC [4] of 2 mg/L (≈ 3.92 µM) and an MIC [5] of 4 mg/L (≈ 7.83 µM). It also gave an MIC [6] of 2 mg/L (≈ 3.92 µM), an MIC (Clostridium septicum) of 8 mg/L (≈ 15.7 µM) and an MIC (Actinomyces israelii) of at most 0.5 mg/L. For the same compound, the “in vivo antimicrobial activity” value [7] was “have shown in vivo antimicrobial activity”, the zone of inhibition at 10 µg/disc (Streptococcus sp. 9960; 10 mcg/disc) was 0 mm and the zone of inhibition at 100 µg/disc (Streptococcus sp. 9960; 100 mcg/disc) was 8.7 mm. For the same compound, the zone of inhibition at 10 µg/disc ([8]; 10 mcg/disc) was 25.4 mm, the zone of inhibition at 100 µg/disc ([8]; 100 mcg/disc) was 29.2 mm and the zone of inhibition at 10 µg/disc ([9]; 10 mcg/disc) was 29.2 mm. For the same compound, the zone of inhibition at 100 µg/disc ([9]; 100 mcg/disc) was 34 mm, the zone of inhibition at 10 µg/disc ([10]; 10 mcg/disc) was 27.2 mm and the zone of inhibition at 100 µg/disc ([10]; 100 mcg/disc) was 31.2 mm. The zone of inhibition at 10 µg/disc (Streptococcus pyogenes [11]; 10 mcg/disc) was 21 mm, the zone of inhibition at 100 µg/disc (Streptococcus pyogenes [11]; 100 mcg/disc) was 27 mm and the zone of inhibition at 10 µg/disc (Diplococcus pneumoniae; 10 mcg/disc) was 14 mm. For the same compound, the zone of inhibition at 100 µg/disc (Diplococcus pneumoniae; 100 mcg/disc) was 20 mm, the MIC (Bacteroides corrodens) was 8 mg/L (≈ 15.7 µM) and the MIC [12] was 0.7 mg/L (≈ 1.37 µM). It also gave an ED50 [13] of 15.7 mg/kg, an MIC [14] of 0.5 mg/L (≈ 0.979 µM) and an MIC (Neisseria gonorrhea) of 0.5 mg/L (≈ 0.979 µM). The MIC [15] was 4 mg/L (≈ 7.83 µM), the MIC (Fusobacterium symbiosum) was 4 mg/L (≈ 7.83 µM) and the “minimal inhibitory concentration (MIC)” value (Mycoplasma hyopneumoniae) was 0.195. The “minimal inhibitory concentration (MIC)” value (Mycoplasma gallisepticum) was at most 0.78, the “minimal inhibitory concentration (MIC)” value (Mycoplasma synoviae) was at most 0.78 and the “minimal inhibitory concentration (MIC)” value (Mycoplasma hyorhinis) was 1.56. The LD50 [16] was over 300 mg/kg, the MIC [17] was 0.7 mg/L (≈ 1.37 µM) and the “control of powdery mildew” value (powdery mildew; bean and barley plants, soil drench, 100 ppm) was “control of powdery mildew is obtained”. For the same compound, the “activity against powdery mildew” value (powdery mildew; foliar spray or soil drench) was “active against powdery mildew”, the MIC (Streptococcus pyogenes [18]) was under 0.01 mg/L and the MIC (Pasteurella hemolytica) was 25 mg/L (≈ 49 µM). It also gave an MIC [19] of 6.25 mg/L (≈ 12.2 µM), an ED50 [20] of 21.5 mg/kg and an MIC [21] of 2 mg/L (≈ 3.92 µM).

Reference: patent US4129721A, “A-40104 antibiotics and process for production thereof” (priority 1977, dated 1978)
